Reference: US10562893B2, “Benzimidazoles derivatives as Tec kinases family inhibitors” (GB005, Inc., priority 2015, dated 2020)

Key:
ITK = ITK (Homo sapiens (Human), UniProt Q08881); assay: ITK kinase inhibition assay; type: biochemical; conditions: micro-fluidic detection, 3 hours at 25° C.
Protocol: (§1) The in vitro kinase assays were performed at Nanosyn utilizing micro-fluidic detection technology. The test compounds were serially pre-diluted in DMSO and added, by the acoustic dispensing (Labcyte® 550), directly to 384 well assay plates into 10 uL of a buffer with enzyme comprising: 100 mM HEPES, pH7.5, 5 mM MgCl2, 0.1% bovine serum albumin, 1 mM DTT, 0.01% Triton X-100 and the enzyme. Final DMSO concentration was maintained at 1% in all samples, including the controls. The reactions were initiated by addition of ATP (to the specified concentration) and the fluorescently labeled peptide substrate to a final concentration of 1 uM, and incubated for 3 hours at 25° C. Following incubation, the reactions were quenched by addition of 40 μL of termination buffer (100 mM HEPES, pH7.5, 0.01% Triton X-100, 50 mM EDTA). Terminated plates were analyzed using Caliper LabChip® 3000 microfluidic electrophoresis instrument (Caliper Life Sciences/Perkin Elmer). The enzymatic modification of the peptide substrate (phosphorylation) results in a change of net charge enabling electrophoretic separation of product from substrate. As substrate and product are separated by electrophoresis, two peaks of fluorescence are observed. Change in the relative fluorescence intensity of the substrate and product peaks was the parameter measured, reflecting enzyme activity. In the presence of inhibitor, the ratio between product and substrate is altered: signal of the product decreases, while the signal of the substrate increases. Activity in each test sample was determined as the product to sum ratio (PSR):P/(S+P), where P is the peak height of the product and S is the peak height of the FAM-cAMP substrate. For each compound, enzyme activity was measured at 12 concentrations spaced by 3× dilution intervals. Negative control samples (0%-inhibition in the absence of inhibitor, DMSO only) and positive control samples (100%-inhibition, in the absence of enzyme or in the presence of control inhibitor) were assembled in replicates of four and were used to calculate %-inhibition values in the presence of compounds. Percent inhibition (Pinh) was determined using the following equation: Pinh=(PSR0%−PSRinh)/(PSR0%−PSR100%)*100, where PSRinh is the product sum ratio in the presence of inhibitor, PSR0% is the product sum ratio in the absence of inhibitor and PSR100% is the product sum ratio in 100%-inhibition control samples. To determine IC50 values, the inhibition curves (Pinh versus inhibitor concentration) were fitted by 4 parameter sigmoid dose-response model using XLfit software (IDBS).

Tec kinase = Tec kinase (Homo sapiens (Human), UniProt P42680); assay: Tec kinase inhibition assay; type: biochemical; conditions: micro-fluidic detection, 3 hours at 25° C.
Protocol: as §1, with “384well” for “384 well”, “(PSR): […],” for “(PSR):P/(S+P),”

Sequence of ITK (Q08881 whole entry): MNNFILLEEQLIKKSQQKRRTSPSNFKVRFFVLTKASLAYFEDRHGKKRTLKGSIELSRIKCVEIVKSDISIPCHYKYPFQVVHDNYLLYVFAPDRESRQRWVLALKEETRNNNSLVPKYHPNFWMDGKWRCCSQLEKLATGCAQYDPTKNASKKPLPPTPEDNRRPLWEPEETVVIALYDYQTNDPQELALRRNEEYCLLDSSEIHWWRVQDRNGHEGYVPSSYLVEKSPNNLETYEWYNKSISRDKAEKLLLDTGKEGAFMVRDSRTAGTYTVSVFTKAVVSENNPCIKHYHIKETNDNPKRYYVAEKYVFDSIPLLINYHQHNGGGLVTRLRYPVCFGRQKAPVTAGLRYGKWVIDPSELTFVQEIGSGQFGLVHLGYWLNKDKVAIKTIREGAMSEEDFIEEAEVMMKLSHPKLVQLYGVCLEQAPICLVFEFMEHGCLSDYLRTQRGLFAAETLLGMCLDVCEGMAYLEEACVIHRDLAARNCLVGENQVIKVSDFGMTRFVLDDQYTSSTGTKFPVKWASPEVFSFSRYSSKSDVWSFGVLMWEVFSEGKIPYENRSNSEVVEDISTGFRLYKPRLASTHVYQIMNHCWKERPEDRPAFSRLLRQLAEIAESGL
Sequence of Tec kinase (P42680 whole entry): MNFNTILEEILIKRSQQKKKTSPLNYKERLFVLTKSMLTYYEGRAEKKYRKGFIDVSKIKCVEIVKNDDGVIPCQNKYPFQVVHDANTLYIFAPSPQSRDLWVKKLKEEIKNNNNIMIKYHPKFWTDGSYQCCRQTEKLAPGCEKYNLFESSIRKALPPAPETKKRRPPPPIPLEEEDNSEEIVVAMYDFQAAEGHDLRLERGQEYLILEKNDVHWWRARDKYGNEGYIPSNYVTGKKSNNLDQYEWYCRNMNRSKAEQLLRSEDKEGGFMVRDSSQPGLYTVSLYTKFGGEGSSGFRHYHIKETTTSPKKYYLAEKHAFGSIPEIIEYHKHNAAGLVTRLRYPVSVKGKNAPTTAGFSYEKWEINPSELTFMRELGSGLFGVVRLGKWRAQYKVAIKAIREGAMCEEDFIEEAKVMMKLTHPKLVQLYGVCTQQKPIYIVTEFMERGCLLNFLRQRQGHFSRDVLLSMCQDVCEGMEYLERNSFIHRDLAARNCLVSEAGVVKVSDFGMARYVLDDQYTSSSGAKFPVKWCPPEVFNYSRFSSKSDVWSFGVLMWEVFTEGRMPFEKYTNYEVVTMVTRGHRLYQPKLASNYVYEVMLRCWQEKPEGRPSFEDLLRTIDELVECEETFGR

Structure (SMILES)	EC50 (ITK)	EC50 (Tec kinase)
C=CC(=O)Nc1cccc(-n2c(NC(=O)c3ccnn3C)nc3cc(CN[C@@H](C)C(C)(C)C)ccc32)c1 [Compound 28]	< 10 nM	10 to 100 nM
C=CC(=O)Nc1cccc(-n2c(NC(=O)c3ccno3)nc3cc(CN[C@@H](C)C(C)(C)C)ccc32)c1 [Compound 38]	< 10 nM	10 to 100 nM

Second part, the molecule after the results:

EC50 (ITK)	EC50 (Tec kinase)	Structure (SMILES)
< 10 nM	10 to 100 nM	C=CC(=O)Nc1cccc(-n2c(NC(=O)c3ccc(C(F)F)s3)nc3cc(CN[C@@H](C)C(C)(C)C)ccc32)c1 [Compound 2]
< 10 nM	10 to 100 nM	C=CC(=O)Nc1cccc(-n2c(NC(=O)c3cccc(C#N)c3)nc3cc(CN[C@@H](C)C(C)(C)C)ccc32)c1 [Compound 9]
< 10 nM	< 10 nM	C=CC(=O)Nc1cccc(-n2c(NC(=O)c3ccc(-c4cnco4)s3)nc3cc(CN[C@@H](C)C(C)(C)C)ccc32)c1 [Compound 25]
